Experimental data: patent US20260217701A1, “SELECTIVE BET INHIBITORS AND USES THEREOF” (Tay Therapeutics Limited, priority 2022, published 2026)
Where “and” joins values, the source holds several entries; their conditions need not be identical. Equal entries are not always repeated.

Test system: collagen-induced arthritis
Assay: Collagen-induced arthritis (CIA) model: clinical scores and paw volume; on Animal paw volume percent change (%): reference of the scale not given here; on Average animal paw volume percent change (%): reference of the scale not given here
Type: in vivo, Lewis rats
Settings: for Animal paw volume percent change (%) / Animal paw volume / clinical score left forelimb / clinical score right forelimb / clinical score right hind limb / clinical score, score (all limbs) / clinical score left hind limb: individual animals; for Average detailed clinical score, left forelimb / Average detailed clinical score, left hind limb / Average detailed clinical score, right forelimb / Average detailed clinical score, right hind limb / Average detailed clinical score, score / Average overall clinical score / Overall Clinical Score / Animal paw volume: Day 21; for Overall Clinical Score: individual animals 1-8
[1] = Day 21, R paw, group 7 CIA + Compound A 10 mg/kg
[2] = group 5 CIA + Compound A 1 mg/kg, 2nd section of table, 1st day (between Day 12 and Day 18)
[3] = group 5 CIA + Compound A 1 mg/kg, 2nd section of table, 1st day (between Day 12 and Day 18), 1 mg/kg
[4] = group 5 CIA + Compound A 1 mg/kg, 2nd section of table, 2nd day (between Day 12 and Day 18)
[5] = group 5 CIA + Compound A 1 mg/kg, 2nd section of table, 2nd day (between Day 12 and Day 18), 1 mg/kg
[6] = group 5 CIA + Compound A 1 mg/kg, 2nd section of table, 3rd day (between Day 12 and Day 18)
[7] = group 5 CIA + Compound A 1 mg/kg, 2nd section of table, 3rd day (between Day 12 and Day 18), 1 mg/kg
[8] = group 5 CIA + Compound A 1 mg/kg, Day 18
[9] = group 5 CIA + Compound A 1 mg/kg, Day 18, 1 mg/kg
[10] = group 5 CIA + Compound A 1 mg/kg, Day 19
[11] = group 5 CIA + Compound A 1 mg/kg, Day 19, 1 mg/kg
[12] = group 5 CIA + Compound A 1 mg/kg, Day 20
[13] = group 5 CIA + Compound A 1 mg/kg, Day 20, 1 mg/kg
[14] = group 6 CIA + Compound A 3 mg/kg, 2nd section of table, 1st day (between Day 12 and Day 18)
[15] = group 6 CIA + Compound A 3 mg/kg, 2nd section of table, 2nd day (between Day 12 and Day 18)
[16] = group 6 CIA + Compound A 3 mg/kg, 2nd section of table, 2nd day (between Day 12 and Day 18), 3 mg/kg
[17] = group 6 CIA + Compound A 3 mg/kg, 2nd section of table, 3rd day (between Day 12 and Day 18)
[18] = group 6 CIA + Compound A 3 mg/kg, 2nd section of table, 3rd day (between Day 12 and Day 18), 3 mg/kg
[19] = group 6 CIA + Compound A 3 mg/kg, Day 18
[20] = group 6 CIA + Compound A 3 mg/kg, Day 18, 3 mg/kg
[21] = group 6 CIA + Compound A 3 mg/kg, Day 19
[22] = group 6 CIA + Compound A 3 mg/kg, Day 19, 3 mg/kg
[23] = group 6 CIA + Compound A 3 mg/kg, Day 20
[24] = group 6 CIA + Compound A 3 mg/kg, Day 20, 3 mg/kg
[25] = group 7 CIA + Compound A 10 mg/kg, 2nd section of table, 1st day (between Day 12 and Day 18), 10 mg/kg
[26] = group 7 CIA + Compound A 10 mg/kg, 2nd section of table, 2nd day (between Day 12 and Day 18)
[27] = group 7 CIA + Compound A 10 mg/kg, 2nd section of table, 2nd day (between Day 12 and Day 18), 10 mg/kg
[28] = group 7 CIA + Compound A 10 mg/kg, 2nd section of table, 3rd day (between Day 12 and Day 18)
[29] = group 7 CIA + Compound A 10 mg/kg, 2nd section of table, 3rd day (between Day 12 and Day 18), 10 mg/kg

Cn1cc(-c2ccccc2)c(-c2cn(C)c(=O)c3[nH]c(-c4cnn(C(F)(F)F)c4)cc23)cc1=O [Compound A, 6-methyl-4-(1-methyl-2-oxo-5-phenyl-1,2-dihydropyridin-4-yl)-2-(1-(trifluoromethyl)-1H-pyrazol-4-yl)-1,6-dihydro-7H-pyrrolo[2,3-c]pyridin-7-one]
Average animal paw volume percent change (%) (Day 21, R paw, group 6 CIA + Compound A 3 mg/kg): 38.15%
Average animal paw volume [1]: 1.81 mL
Average animal paw volume percent change (%) [1]: 38.27%
Animal paw volume percent change (%) (Day 21, R paw, group 5 CIA + Compound A 1 mg/kg, 1 mg/kg): 73.56% and 88.03% and 50.91% and 70.19% and 18.45% and 55.51% and 49.81%
Animal paw volume percent change (%) (Day 21, R paw, group 6 CIA + Compound A 3 mg/kg, 3 mg/kg): 64.91% and 27.24% and 46.04% and 29.74% and 60.23%
Average detailed clinical score, left forelimb (CIA + Compound A 1 mg/kg): 1.00
Average detailed clinical score, left hind limb (CIA + Compound A 1 mg/kg): 4.00
Average detailed clinical score, right forelimb (CIA + Compound A 1 mg/kg): 1.00
Average detailed clinical score, right hind limb (CIA + Compound A 1 mg/kg): 3.75
Average detailed clinical score, score (CIA + Compound A 1 mg/kg): 9.75
Average overall clinical score (CIA + Compound A 1 mg/kg): 5
Overall Clinical Score (CIA + Compound A 1 mg/kg, 1 mg/kg): 0 and 6 (5×) and 8 and 2
Average detailed clinical score, left forelimb (CIA + Compound A 3 mg/kg): 0.00
Average detailed clinical score, left hind limb (CIA + Compound A 3 mg/kg): 2.50
Average detailed clinical score, right forelimb (CIA + Compound A 3 mg/kg): 1.25
Average detailed clinical score, right hind limb (CIA + Compound A 3 mg/kg): 2.75
Average detailed clinical score, score (CIA + Compound A 3 mg/kg): 6.50
Average overall clinical score (CIA + Compound A 3 mg/kg): 4
Overall Clinical Score (CIA + Compound A 3 mg/kg, 3 mg/kg): 5 (2×) and 3 (2×)
Average detailed clinical score, left forelimb (CIA + Compound A 10 mg/kg): 0.00
Average detailed clinical score, left hind limb (CIA + Compound A 10 mg/kg): 1.88
Average detailed clinical score, right forelimb (CIA + Compound A 10 mg/kg): 0.13
Average detailed clinical score, right hind limb (CIA + Compound A 10 mg/kg): 1.63
Average detailed clinical score, score (CIA + Compound A 10 mg/kg): 3.63
Average overall clinical score (CIA + Compound A 10 mg/kg): 4
Animal paw volume (L paw, Group 5 (CIA + Compound A 1 mg/kg), 1 mg/kg): 2.05 mL and 2.45 mL and 2.08 mL (2×) and 2.27 mL and 1.64 mL and 2.15 mL
Animal paw volume (L paw, Group 6 (CIA + Compound A 3 mg/kg), 3 mg/kg): 1.92 mL and 2.19 mL and 1.64 mL and 1.52 mL and 1.80 mL
Animal paw volume (R paw, Group 5 (CIA + Compound A 1 mg/kg), 1 mg/kg): 2.27 mL and 2.44 mL and 2.08 mL and 2.26 mL and 1.61 mL and 2.05 mL and 1.99 mL
Animal paw volume (R paw, Group 6 (CIA + Compound A 3 mg/kg), 3 mg/kg): 2.19 mL and 1.64 mL and 1.94 mL and 1.75 mL and 2.08 mL
clinical score left forelimb [2]: 0
clinical score right forelimb [2]: 0
clinical score right hind limb [3]: 0 (6×) and 1 (2×)
clinical score, score (all limbs) [3]: 0 (6×) and 2 and 1
clinical score left forelimb [4]: 0
clinical score right forelimb [4]: 0
clinical score left hind limb [5]: 0 (5×) and 2 and 1 (2×)
clinical score right hind limb [5]: 0 (5×) and 1 (3×)
clinical score, score (all limbs) [5]: 0 (3×) and 2 (2×) and 1 (3×)
clinical score left forelimb [6]: 0
clinical score right forelimb [6]: 0
clinical score left hind limb [7]: 0 (3×) and 2 (3×) and 1 (2×)
clinical score right hind limb [7]: 0 (3×) and 2 (2×) and 1 (3×)
clinical score, score (all limbs) [7]: 0 (3×) and 4 and 3 (3×) and 2
clinical score left forelimb [8]: 0
clinical score right forelimb [8]: 0
clinical score left hind limb [9]: 0 and 2 (3×) and 4 and 3 (2×) and 1
clinical score right hind limb [9]: 0 and 3 (4×) and 2 (2×) and 1
clinical score, score (all limbs) [9]: 0 and 5 (3×) and 7 and 6 and 2 and 4
clinical score left forelimb [10]: 0
clinical score right forelimb [10]: 0
clinical score left hind limb [11]: 0 and 3 (5×) and 4 and 1
clinical score right hind limb [11]: 0 and 3 (5×) and 4 and 2
clinical score, score (all limbs) [11]: 0 and 6 (5×) and 8 and 3
clinical score left forelimb [12]: 0
clinical score right forelimb [12]: 0
clinical score left hind limb [13]: 0 and 3 (5×) and 4 and 1
clinical score right hind limb [13]: 0 and 3 (5×) and 4 and 1
clinical score, score (all limbs) [13]: 0 and 6 (5×) and 8 and 2
clinical score left forelimb [14]: 0
clinical score right forelimb [14]: 0
clinical score left forelimb [15]: 0
clinical score right forelimb [15]: 0
clinical score left hind limb [16]: 0 (6×) and 1 (2×)
clinical score, score (all limbs) [16]: 0 (6×) and 1 and 3
clinical score left forelimb [17]: 0
clinical score right forelimb [17]: 0
clinical score left hind limb [18]: 0 (4×) and 1 (4×)
clinical score right hind limb [18]: 0 (5×) and 2 and 1 (2×)
clinical score, score (all limbs) [18]: 0 (4×) and 1 and 3 and 2 (2×)
clinical score left forelimb [19]: 0
clinical score right forelimb [19]: 0
clinical score left hind limb [20]: 2
clinical score right hind limb [20]: 2
clinical score, score (all limbs) [20]: 4
clinical score left forelimb [21]: 0
clinical score right forelimb [21]: 0
clinical score left hind limb [22]: 2
clinical score right hind limb [22]: 3 and 2
clinical score, score (all limbs) [22]: 5 and 4
clinical score left forelimb [23]: 0
clinical score right forelimb [23]: 0
clinical score left hind limb [24]: 2 and 3
clinical score right hind limb [24]: 3
clinical score, score (all limbs) [24]: 5
clinical score left forelimb (group 7 CIA + Compound A 10 mg/kg, 2nd section of table, 1st day (between Day 12 and Day 18)): 0
clinical score left hind limb [25]: 0 (7×) and 1
clinical score right hind limb [25]: 0 (6×) and 1 (2×)
clinical score, score (all limbs) [25]: 0 (6×) and 1 and 3
clinical score left forelimb [26]: 0
clinical score right forelimb [26]: 0
clinical score left hind limb [27]: 0 (6×) and 1 (2×)
clinical score right hind limb [27]: 0 (6×) and 2 and 1
clinical score, score (all limbs) [27]: 0 (5×) and 1 and 2 (2×)
clinical score left forelimb [28]: 0
clinical score right forelimb [28]: 0
clinical score left hind limb [29]: 1 (2×) and 0 (4×) and 2 (2×)
clinical score right hind limb [29]: 1 (2×) and 0 (5×) and 2
clinical score, score (all limbs) [29]: 2 and 0 (4×) and 1 and 4 and 3
